The target in experiment [1] is T1, IKZF2 (Helios) (Homo sapiens, UniProt Q96SW2+Q9UKS7).
T1 construct: endogenous in cells; host or cells: MOLT4 (CRISPR/Cas knock-in of HiBiT at the endogenous IKZF2 locus)
Put plainly: HiBiT-IKZF2 degradation assay in MOLT4 cells. The format is cell-based. The following applies: for inhibition at 10 µM: MOLT-4, 10 μM; for DC50: concentration at which 50% of HiBiT-Helios degradation was achieved, read-out: Cellular Degradation - IKZF2 DC50. The protocol: The HiBiT protein tagging system was applied to MOLT4 cells via a CRISPR/Cas-mediated insertion of the HiBiT peptide tag (Promega™) to the N-terminus of the IKZF2 gene locus (Neon™ Transfection System). The resulting HiBiT-Helios stable cell line was treated with inventive compounds 1-10 in triplicates following a 13-point concentration scheme ranging from 10 μM to 0.00026 μM. At the indicated timepoints, the Nano-Glo® HiBiT Lytic Detection system (Promega™) was utilized for detecting bioluminescence of the HiBiT tag in treated cells: the abundance of the tag is proportionate to the level of luminescence. Following normalization to DMSO, dose-response curves were plotted (GraphPad Prism) to determine the concentration points at which 50% of HiBiT-Helios degradation was achieved by each compound. The extent of degradation (range of luminescence) from the highest to lowest concentration points was calculated to determine Dmax.

Experiment [2] has as its target T2, CRBN (NanoLuc-CRBN) (Homo sapiens, UniProt Q96SW2).
T2 construct: expressed in transfected cells; host or cells: HEK293T (lentiviral transduction, puromycin selection)
Put plainly: Cellular CRBN NanoBRET engagement assay. The format is cell-based. The following applies: HEK293T cells stably expressing NanoLuc-CRBN; tracer 250 nM; two hours incubation. Here is the method:
HEK293T cells were transduced with lentivirus and put under puromycin selection (5 μg/mL) for two weeks to produce a cell line stably expressing CRBN with N-terminally fused NanoLuc luciferase (NanoLuc®-CRBN). After antibiotic selection, cells were cultured in DMEM (Gibco, Life Technologies™) supplemented with 10% FBS and 1 μg/mL puromycin to maintain stable NanoLuc®-CRBN expression.
To run the assay, cells were cultured to confluency in 10 cm^2 tissue culture treated plates (Corning®, 430165), washed with PBS and trypsinized at room temperature to detach from the cell culture plate. After 3-4 minutes, the trypsin was quenched with 5× volume DMEM media (Gibco, Life Technologies™) with 10% FBS and cells are collected by centrifugation (1000 rpm, 5 min). The supernatant was removed by vacuum aspiration and the pellet was then resuspended in Opti-MEM™ without phenol red. The density of this cell suspension was determined by diluting the cells 1:1 with trypan blue, then counting using a Countess™ II (Thermo Fischer Scientific) and then diluted to the required volume at 2×10^5 viable cells/mL in Opti-MEM™ I (Gibco, Life Technologies™). CRBN engagement tracer (stock at 10 μM in 31.25% PEG-400, 12.5 mM HEPES, pH 7.5, filtered using a 0.22 μm nitrocellulose membrane; final concentration in cell suspension for assay at 250 nM) was added to the suspension. Cells were then plated in a white/opaque cell culture treated 384-well plate (Corning®, 3570) at volume of 50 μL/well. After plating, the assay plate was centrifuged (500×g, 5 min) and covered in aluminum foil. Compounds for testing were added to the plate using D300e Digital Dispenser (HP) in duplicate 12-pt titrations from a 10 mM stock in DMSO, with DMSO normalized to 1% total volume. The plate was then placed in an incubator at 37° C., 5% CO2 for two hours. After incubation, the plate was removed and set on the bench to come to room temperature (˜10-15 min). The NanoLuc® substrate (500× solution)* and extracellular inhibitor (1500× solution)* were diluted in Opti-MEM™ I (Gibco, Life Technologies™) to prepare a 3× solution. This was then added to each well (25 μL/well). The plate was read on a Pherastar® FSX microplate reader with simultaneous dual emission capabilities to read 384-well plates at 450 and 520 nm. The NanoBRET™ ratio was calculated by dividing the signal at 520 nm by the signal at 450 nm for each sample. Duplicate points were averaged and plotted against [compound, M] to generate an ECso curve.

In US20240217970A1, “PHTHALIMIDO CEREBLON COMPLEX BINDERS AND TRANSCRIPTION FACTOR DEGRADERS AND METHODS OF USE” (DANA-FARBER CANCER INSTITUTE, INC., priority 2021, published 2024) one finds inhibition, DC50 and IC50 data, which are given here for 20 molecules.

T2 sequence (Q96SW2 whole entry, species assumed): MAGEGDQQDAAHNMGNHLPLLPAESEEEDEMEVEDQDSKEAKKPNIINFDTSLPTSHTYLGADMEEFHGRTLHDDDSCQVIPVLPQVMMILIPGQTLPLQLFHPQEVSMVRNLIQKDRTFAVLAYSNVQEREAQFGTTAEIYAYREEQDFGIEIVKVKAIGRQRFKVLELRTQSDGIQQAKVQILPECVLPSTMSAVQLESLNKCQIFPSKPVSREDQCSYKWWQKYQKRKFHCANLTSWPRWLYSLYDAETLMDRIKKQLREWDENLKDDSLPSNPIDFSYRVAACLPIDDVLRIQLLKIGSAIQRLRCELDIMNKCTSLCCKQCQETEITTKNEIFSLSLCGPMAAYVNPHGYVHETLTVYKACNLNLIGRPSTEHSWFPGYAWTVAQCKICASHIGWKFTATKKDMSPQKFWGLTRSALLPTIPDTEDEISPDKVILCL
T1 sequence (Q9UKS7 whole entry): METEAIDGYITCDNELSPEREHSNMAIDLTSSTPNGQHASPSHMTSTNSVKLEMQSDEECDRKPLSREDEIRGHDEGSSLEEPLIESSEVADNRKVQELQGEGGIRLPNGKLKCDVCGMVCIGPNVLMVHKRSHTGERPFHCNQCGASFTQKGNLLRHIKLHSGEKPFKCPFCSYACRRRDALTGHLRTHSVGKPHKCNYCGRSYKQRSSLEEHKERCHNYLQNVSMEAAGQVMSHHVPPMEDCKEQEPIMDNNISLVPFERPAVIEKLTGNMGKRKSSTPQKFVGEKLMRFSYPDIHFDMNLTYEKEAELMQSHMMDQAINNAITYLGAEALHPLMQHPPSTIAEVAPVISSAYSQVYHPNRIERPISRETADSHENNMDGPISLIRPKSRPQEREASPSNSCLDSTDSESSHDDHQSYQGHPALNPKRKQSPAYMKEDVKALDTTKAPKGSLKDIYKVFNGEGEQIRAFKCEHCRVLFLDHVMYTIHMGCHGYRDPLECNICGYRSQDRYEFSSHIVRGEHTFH
T1 sequence (Q96SW2 whole entry): as the sequence (Q96SW2 whole entry, species assumed) above
T1 sequence (Q16531 whole entry partner): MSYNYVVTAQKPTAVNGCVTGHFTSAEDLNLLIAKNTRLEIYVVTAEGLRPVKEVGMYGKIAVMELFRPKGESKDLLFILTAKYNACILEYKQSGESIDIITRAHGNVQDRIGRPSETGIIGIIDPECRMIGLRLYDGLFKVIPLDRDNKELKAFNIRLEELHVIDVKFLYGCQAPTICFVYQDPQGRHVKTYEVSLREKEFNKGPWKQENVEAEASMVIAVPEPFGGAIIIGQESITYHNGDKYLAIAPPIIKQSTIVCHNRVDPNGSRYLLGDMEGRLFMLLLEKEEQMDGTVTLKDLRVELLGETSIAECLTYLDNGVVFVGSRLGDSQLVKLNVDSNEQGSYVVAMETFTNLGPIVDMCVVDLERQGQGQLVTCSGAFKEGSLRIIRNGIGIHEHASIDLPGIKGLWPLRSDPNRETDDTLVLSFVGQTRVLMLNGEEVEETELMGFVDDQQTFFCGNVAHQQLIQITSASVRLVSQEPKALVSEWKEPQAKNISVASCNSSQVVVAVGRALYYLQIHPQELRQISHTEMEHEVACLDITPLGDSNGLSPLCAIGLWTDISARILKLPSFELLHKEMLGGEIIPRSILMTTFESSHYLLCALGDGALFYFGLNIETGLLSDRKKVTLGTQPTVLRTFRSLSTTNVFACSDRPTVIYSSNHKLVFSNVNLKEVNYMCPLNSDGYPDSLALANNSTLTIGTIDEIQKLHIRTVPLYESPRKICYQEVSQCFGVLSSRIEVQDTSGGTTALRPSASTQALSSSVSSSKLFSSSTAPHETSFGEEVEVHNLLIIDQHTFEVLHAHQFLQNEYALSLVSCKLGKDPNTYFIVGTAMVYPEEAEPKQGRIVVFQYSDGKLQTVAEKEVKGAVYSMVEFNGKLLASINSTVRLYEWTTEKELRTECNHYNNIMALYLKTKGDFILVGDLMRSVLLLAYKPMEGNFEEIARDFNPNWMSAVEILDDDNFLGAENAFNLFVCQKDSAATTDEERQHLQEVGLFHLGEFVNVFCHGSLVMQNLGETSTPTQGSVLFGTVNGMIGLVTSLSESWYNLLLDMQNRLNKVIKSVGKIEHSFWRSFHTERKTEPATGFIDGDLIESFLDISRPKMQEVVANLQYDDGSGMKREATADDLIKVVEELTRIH

`O=C1CCC(N2C(=O)c3ccc(C4(O)CCN(Cc5cc(F)cc(F)c5)CC4)cc3C2=O)C(=O)N1` (stereo not shown) [Compound 12]: in experiment [1], the inhibition at 10 µM is 76% and the DC50 was found to be 61 nM.

Take `O=C1CCC(N2C(=O)c3ccc(C4(O)CCN(Cc5ccc(OC(F)F)cc5)CC4)cc3C2=O)C(=O)N1` (stereo not shown) [Compound 13]: in experiment [1], the inhibition at 10 µM is 74% and the DC50 was determined as 19 nM.

For `COc1cccc(CN2CCC(O)(c3ccc4c(c3)C(=O)N(C3CCC(=O)NC3=O)C4=O)CC2)c1` (stereo not shown) [Compound 10], in experiment [1], 10 µM produced 77% inhibition and the DC50 was found to be 16 nM.

The molecule `O=C1CCC(N2C(=O)c3ccc(C4(O)CCN(Cc5cccc(Nc6ccccn6)n5)CC4)cc3C2=O)C(=O)N1` (stereo not shown) [Compound 8] displayed an IC50 in experiment [2] of 76 nM. For the same molecule, in experiment [1], testing at 10 µM gave an inhibition of 71% and the DC50 is 24 nM.

The molecule `O=C1CCC(N2C(=O)c3ccc(C4(O)CCN(Cc5cccc(Oc6ccc(Cl)cc6)c5)CC4)cc3C2=O)C(=O)N1` (stereo not shown) [Compound 3] displayed an IC50 in experiment [2] of 54 nM. In addition, in experiment [1], the inhibition at 10 µM is 79% and the DC50 turned out to be 8.8 nM.

As for `O=C1CCC(N2C(=O)c3ccc(C4CCN(Cc5cccc(Nc6ccccn6)n5)CC4)cc3C2=O)C(=O)N1` (stereo not shown) [Compound 11], the IC50 in experiment [2] worked out at 240 nM. At 10 µM the inhibition in experiment [1] was 45%.

`O=C1CCC(N2C(=O)c3ccc(C4(O)CCN(Cc5ccccc5C(F)(F)F)CC4)cc3C2=O)C(=O)N1` (stereo not shown) [Compound 14] yielded an IC50 in experiment [2] of 62 nM. In experiment [1], testing at 10 µM gave an inhibition of 57% and the DC50 turned out to be 20 nM.

Molecule `O=C1CCC(N2C(=O)c3ccc(C4(O)CCN(Cc5cccc(Oc6ccc(F)cc6)c5)CC4)cc3C2=O)C(=O)N1` (stereo not shown) [Compound 6] displayed an IC50 in experiment [2] of less than 2.6 nM. In addition, in experiment [1], the inhibition at 10 µM was found to be 77% and the DC50 was found to be 7.3 nM.

`O=C1CCC(N2C(=O)c3ccc(C4(O)CCN(Cc5ccc(F)c(Oc6ccccc6)c5)CC4)cc3C2=O)C(=O)N1` (stereo not shown) [Compound 4] showed an IC50 in experiment [2] of 88 nM. For the same molecule, in experiment [1], the inhibition at 10 µM was found to be 73% and the DC50 is 23 nM.

Take `O=C1CCC(N2C(=O)c3ccc(C4(O)CCN(Cc5ccccc5)CC4)cc3C2=O)C(=O)N1` (stereo not shown) [Compound 18, 5-(1-benzyl-4-hydroxypiperidin-4-yl)-2-(2,6-dioxopiperidin-3-yl)isoindoline-1,3-dione]: the IC50 in experiment [2] was found to be 65 nM. Also, in experiment [1], the inhibition at 10 µM amounted to 70% and the DC50 turned out to be 22 nM.

Consider `O=C1CCC(N2C(=O)c3ccc(C4CCN(Cc5ccccc5)CC4)cc3C2=O)C(=O)N1` (stereo not shown) [Compound 20], for which, in experiment [1], the inhibition at 10 µM is 45%.

In experiment [2], `O=C1CCC(N2C(=O)c3ccc(C4=CCN(Cc5ccccc5)CC4)cc3C2=O)C(=O)N1` (stereo not shown) [Compound 19, 5-(1-Benzyl-1,2,3,6-tetrahydropyridin-4-yl)-2-(2,6-dioxopiperidin-3-yl)isoindoline-1,3-dione] returned an IC50 of 1700 nM. Also, the inhibition at 10 µM in experiment [1] stood at 30%.

In turn, `O=C1CCC(N2C(=O)c3ccc(C4(O)CCN(Cc5cccc6ccccc56)CC4)cc3C2=O)C(=O)N1` (stereo not shown) [Compound 9] showed an IC50 in experiment [2] of 15 nM. In addition, in experiment [1], 10 µM produced 72% inhibition and the DC50 was 14 nM.

Take `O=C1CCC(N2C(=O)c3ccc(C4(O)CCN(Cc5ccc6ccccc6c5)CC4)cc3C2=O)C(=O)N1` (stereo not shown) [Compound 17, 2-(2,6-dioxo-3-piperidyl)-5-[4-hydroxy-1-(2-naphthylmethyl)-4-piperidyl]isoindoline-1,3-dione]: 200 nM corresponded to half-maximal inhibition in experiment [2] (IC50). Further, in experiment [1], the inhibition at 10 µM worked out at 80% and the DC50 worked out at 13 nM.

Molecule `O=C1CCC(N2C(=O)c3ccc(C4(O)CCN(Cc5ccc6cc(-c7ccccc7)nn6c5)CC4)cc3C2=O)C(=O)N1` (stereo not shown) [Compound 1, 2-(2,6-dioxo-3-piperidyl)-5-[4-hydroxy-1-[(2-phenylpyrazolo[1,5-a]pyridin-6-yl)methyl]-4-piperidyl]isoindoline-1,3-dione] returned an IC50 in experiment [2] of 38 nM. In addition, in experiment [1], the inhibition at 10 µM is 80% and the DC50 turned out to be 4.9 nM.

`COc1ccc(Oc2cccc(CN3CCC(O)(c4ccc5c(c4)C(=O)N(C4CCC(=O)NC4=O)C5=O)CC3)c2)cc1` (stereo not shown) [Compound 2] gave an IC50 in experiment [2] of 41 nM. Moreover, in experiment [1], 10 µM produced 80% inhibition and the DC50 turned out to be 5.1 nM.

Take `O=C1CCC(N2C(=O)c3ccc(C4(O)CCN(Cc5cccc(Oc6ccccc6)c5)CC4)cc3C2=O)C(=O)N1` (stereo not shown) [Compound 15]: in experiment [2], the IC50 was 31 nM. In experiment [1], the inhibition at 10 µM worked out at 76% and the DC50 was determined as 4.2 nM.

As to `O=C1CCC(N2C(=O)c3ccc(C4(O)CCN(Cc5ccc(C(F)(F)F)cc5)CC4)cc3C2=O)C(=O)N1` (stereo not shown) [Compound 16], in experiment [1], the inhibition at 10 µM is 69% and the DC50 was determined as 56 nM.

In turn, `O=C1CCC(N2C(=O)c3ccc(C4(O)CCN(CC5CCOCC5)CC4)cc3C2=O)C(=O)N1` (stereo not shown) [Compound 7] showed an IC50 in experiment [2] of 56 nM. Moreover, in experiment [1], at 10 µM the inhibition was 55% and the DC50 is 55 nM.

In experiment [2], `N#Cc1ccc(Oc2cccc(CN3CCC(O)(c4ccc5c(c4)C(=O)N(C4CCC(=O)NC4=O)C5=O)CC3)c2)cc1` (stereo not shown) [Compound 5] gave an IC50 of 24 nM. Further, in experiment [1], the inhibition at 10 µM was 77% and the DC50 worked out at 4.3 nM.
